Where “and” joins values, the source holds several entries; their conditions need not be identical. Equal entries are not always repeated.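 Compound exposure: 48 hours, 5 concentrations, 96-well plates. The concentration for 50% growth inhibition is given as GI50. The concentration for full growth arrest is given as TGI.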
Experiments:
Experiment in all cases: NCI tumour cell line growth inhibition, 48 h
DLD-1 colon = system: DLD-1 colon
XF 498 CNS = system: XF 498 CNS
LXFL 529 NSCLC = system: LXFL 529 NSCLC
M19-MEL melanoma = system: M19-MEL melanoma
DMS 114 small cell lung = system: DMS 114 small cell lung
DMS 273 small cell lung = system: DMS 273 small cell lung
MDA-N = system: MDA-N
P388/ADR leukemia = system: P388/ADR leukemia
SN12K1 renal = system: SN12K1 renal
P388 leukemia = system: P388 leukemia
HOP-18 NSCLC = system: HOP-18 NSCLC
RXF-631 renal = system: RXF-631 renal

## CCCN(CCCC(NC(C)=O)C(=O)NCc1ccccc1)C(=O)N(C)N=O (configuration not stated)
DLD-1 colon
  TGI: > 100 µM
XF 498 CNS
  TGI: > 100 µM
LXFL 529 NSCLC
  TGI: > 100 µM
M19-MEL melanoma
  TGI: > 100 µM
DMS 114 small cell lung
  TGI: > 100 µM
DMS 273 small cell lung
  TGI: > 100 µM

## COc1ccc(/C=C/C(=O)OC2CC34CCNC35CC(OC5(OC)C2OC)c2ccc(OC)c(O)c24)cc1O (configuration not stated)
MDA-N
  TGI: > 100 µM

## CC[C@@]1(O)C(=O)OCc2c1cc1n(c2=O)Cc2cc3cc(O)ccc3nc2-1
DLD-1 colon
  GI50: 0.514 µM
  TGI: 75 µM and > 87.2 µM
XF 498 CNS
  GI50: 0.0518 µM
  TGI: 0.183 µM and 0.472 µM
LXFL 529 NSCLC
  TGI: 1.91 µM
M19-MEL melanoma
  GI50: 0.0634 µM
  TGI: 0.589 µM and 1.01 µM
P388/ADR leukemia
  TGI: 1.03 µM
SN12K1 renal
  TGI: 0.937 µM
P388 leukemia
  TGI: 1.43 µM
HOP-18 NSCLC
  TGI: 5.2 µM
DMS 273 small cell lung
  GI50: 0.0272 µM and 0.0217 µM
  TGI: 0.47 µM and 1.74 µM

## Oc1ccc(I)c2cccnc12
DLD-1 colon
  TGI: > 100 µM
XF 498 CNS
  TGI: > 100 µM
LXFL 529 NSCLC
  TGI: > 100 µM
M19-MEL melanoma
  TGI: 76.8 µM
HOP-18 NSCLC
  TGI: 47.7 µM
DMS 273 small cell lung
  TGI: 14.1 µM

## O=C1C=C(Nc2cc(Cl)ccc2Cl)c2ccccc2C1=O
DLD-1 colon
  TGI: > 100 µM
M19-MEL melanoma
  TGI: 29.2 µM
DMS 114 small cell lung
  TGI: 76.2 µM
RXF-631 renal
  TGI: > 100 µM
HOP-18 NSCLC
  TGI: 70 µM
DMS 273 small cell lung
  TGI: 68.6 µM

## COC12OCCN(C)C1=CC(=O)C1N=NCC12 (configuration not stated)
DLD-1 colon
  TGI: > 100 µM
LXFL 529 NSCLC
  TGI: > 100 µM
M19-MEL melanoma
  TGI: > 100 µM
DMS 114 small cell lung
  TGI: > 100 µM
RXF-631 renal
  TGI: > 100 µM
HOP-18 NSCLC
  TGI: > 100 µM
DMS 273 small cell lung
  TGI: > 100 µM

## O=C(CC(O)(C(F)(F)F)C(F)(F)F)c1cccs1
MDA-N
  TGI: > 10 µM

## Cc1cc2c3c(nc4ccccc42)C(=O)c2cccnc2-c3n1
MDA-N
  GI50: 0.152 µM
  TGI: 0.294 µM

## CC(=O)c1ccc(NC(=O)C(=O)CC(=O)c2sc(-n3nc(-c4ccccc4)cc3-c3ccccc3)nc2C)cc1
DLD-1 colon
  TGI: > 100 µM
LXFL 529 NSCLC
  TGI: > 100 µM
M19-MEL melanoma
  TGI: > 100 µM
DMS 114 small cell lung
  TGI: > 100 µM
RXF-631 renal
  TGI: > 100 µM
DMS 273 small cell lung
  TGI: > 100 µM

## CCOC(=O)C1(C)C2=CC=C(O2)C(C)(C)C2=CC=C(O2)C(C)(C)C2=CC=C(O2)C(C)(C)C2=CC=C1O2
XF 498 CNS
  TGI: > 100 µM
LXFL 529 NSCLC
  TGI: > 100 µM
M19-MEL melanoma
  TGI: > 100 µM
RXF-631 renal
  TGI: > 100 µM
HOP-18 NSCLC
  TGI: > 100 µM
DMS 273 small cell lung
  TGI: > 100 µM

## COc1ccc(N=Nc2c(-c3ccccc3)nn(C(=O)CC(=O)Nc3ccc(OC)cc3)c2-c2ccccc2)cc1
DLD-1 colon
  TGI: > 100 µM
XF 498 CNS
  TGI: 76.1 µM
LXFL 529 NSCLC
  TGI: > 100 µM
M19-MEL melanoma
  TGI: > 100 µM
DMS 114 small cell lung
  TGI: > 100 µM
RXF-631 renal
  TGI: > 100 µM
HOP-18 NSCLC
  TGI: > 100 µM
DMS 273 small cell lung
  TGI: > 100 µM

## COC(=O)C1=C(C)N(NC(N)=O)C2(N)N(NC(N)=O)C(C)=C(C(=O)OC)C12C#N (configuration not stated)
DLD-1 colon
  TGI: > 100 µM
XF 498 CNS
  TGI: > 100 µM
M19-MEL melanoma
  TGI: > 100 µM
DMS 114 small cell lung
  TGI: > 100 µM
RXF-631 renal
  TGI: > 100 µM
HOP-18 NSCLC
  TGI: > 100 µM
DMS 273 small cell lung
  TGI: > 100 µM

## CS(=O)(=O)ON1C(=O)c2ccc(N)cc2C1=O
DLD-1 colon
  TGI: > 100 µM
XF 498 CNS
  TGI: > 100 µM
LXFL 529 NSCLC
  TGI: > 100 µM
M19-MEL melanoma
  TGI: > 100 µM
DMS 114 small cell lung
  TGI: > 100 µM
RXF-631 renal
  TGI: > 100 µM
HOP-18 NSCLC
  TGI: > 100 µM
DMS 273 small cell lung
  TGI: > 100 µM

## O=c1[nH]c(-c2ccccc2)nc2cc([N+](=O)[O-])c(/C(Cl)=C/c3ccccc3)cc12
LXFL 529 NSCLC
  TGI: 78.4 µM
M19-MEL melanoma
  TGI: > 100 µM
DMS 114 small cell lung
  TGI: > 100 µM
DMS 273 small cell lung
  TGI: > 100 µM

## N#CC(Cl)CS(=O)(=O)c1ccccc1 (configuration not stated)
DLD-1 colon
  TGI: 3.98 µM
XF 498 CNS
  TGI: 9.64 µM
M19-MEL melanoma
  TGI: 29.2 µM
DMS 114 small cell lung
  TGI: 9.34 µM
HOP-18 NSCLC
  TGI: 22 µM
MDA-N
  TGI: 20.2 µM

## Cc1cc(NS(=O)(=O)c2ccc(NC(=O)c3cccc4c(Nc5ccc(S(=O)(=O)Nc6cc(C)on6)cc5)c5ccc(Cl)cc5nc34)cc2)no1
DLD-1 colon
  TGI: > 100 µM
XF 498 CNS
  TGI: > 100 µM
LXFL 529 NSCLC
  TGI: > 100 µM
M19-MEL melanoma
  TGI: > 100 µM
DMS 114 small cell lung
  TGI: > 100 µM
HOP-18 NSCLC
  TGI: > 100 µM
DMS 273 small cell lung
  TGI: > 100 µM

## O=C1CC[C@@H](S(=O)(=O)c2ccccc2)[C@H](/C=C/c2ccccc2)O1
LXFL 529 NSCLC
  TGI: > 100 µM
M19-MEL melanoma
  TGI: > 100 µM
DMS 114 small cell lung
  TGI: > 100 µM
HOP-18 NSCLC
  TGI: > 100 µM

## Nc1nc(N)c2c(Cl)c(CNc3ccc(Cl)c(Cl)c3)ccc2n1
DLD-1 colon
  TGI: 11.8 µM
XF 498 CNS
  TGI: 7.71 µM
LXFL 529 NSCLC
  TGI: 12.3 µM
M19-MEL melanoma
  TGI: 12.5 µM
DMS 114 small cell lung
  TGI: 4.85 µM
HOP-18 NSCLC
  TGI: 17.1 µM
MDA-N
  TGI: 17 µM
DMS 273 small cell lung
  TGI: 3.87 µM

## C/C(=N\O)C1CC(CC(=O)O)C1(C)C (configuration not stated)
MDA-N
  TGI: > 100 µM

## CCc1nc(N)nc(N)c1-c1ccc(N2CCNCC2)c([N+](=O)[O-])c1
MDA-N
  TGI: > 100 µM

## CN(C)Cc1ccc(O)c(CN(C)C)n1
MDA-N
  TGI: > 100 µM
